By melting point is commonly meant the temperature, or range, at which the solid turns liquid.

Bounds are passed on as bounds.

In turn, `C(=C(\Oc1ccccc1)c1nc2ccccc2s1)/c1ccc2c(c1)OCO2` gave a melting point of 170 °C.
The value for `CC(C)(C)SSC(C)(C)C` was -5 °C; that for `S=C=NCc1ccc(Cl)cc1Cl` was 26 to 28 °C; that for `O=C(c1ccccc1)c1cccc(O)c1` was 117 to 119 °C.
The value for `CCOC(=O)c1c[nH]cc1C` was 74 °C.
The value for `c1ccc(-c2ccc(N=C(CNc3ccc(-c4ccccc4)cc3)Nc3ccc(-c4ccccc4)cc3)cc2)cc1` was 190 °C; that for `CC(=O)c1ccc(N2CCOCC2)cc1` was 94 to 98 °C.
As for `Fc1cccc(P(c2cccc(F)c2)c2cccc(F)c2)c1`, the melting point was determined as 61.5 °C.
The value for `CC[C@@]1(O)CC[C@]2(C)[C@H]3CC[C@]4(C)C(O)CC[C@H]4[C@@H]3CC[C@@]2(C)C1` (some centres undefined) was 168 to 169 °C.
The value for `COC(=O)[C@@H]1C[C@@H]2CSCN2[C@@]12C(=O)c1cccc3cccc2c13` was 172 °C; that for `O=C(C1=NOC2C(=O)N(c3ccc(Cl)cc3)C(=O)C12)c1ccc(Cl)cc1` (centres undefined) was 152 °C.
For `O=C1C(C(O)c2ccccc2)C(C(F)(F)F)=NN1c1ccccc1` (centres undefined), the melting point worked out at 258 °C.
`O=C1CC2C(CC(O)C2CO)O1` (single isomer, unassigned; (-)) had a melting point of 114 to 118 °C.
Turning to `O=C1CSCC(=O)O1`, the melting point lay in the range of 94 to 97 °C.
As for `CC(C)(OCc1ccc(-c2ccc(Cl)cc2)cc1)C(=O)O`, the melting point came to 154 °C.
As for `CCCCCCCCBr`, the figure is -55 °C; as for `CCC12CCCN(CCc3c([nH]c4ccccc34)CC1)C2` (centres undefined), 146 °C.
In turn, `O=C(CBr)c1ccc(Oc2ccccc2)cc1` came in with a melting point of 49 to 50 °C.
The value for `Cc1cc(=O)[nH]c2c(/N=N/c3cccc([N+](=O)[O-])c3)c(N)nn12` was 318 °C; that for `COc1ccccc1-c1ccc(C=C2C(=O)NC(=S)NC2=O)o1` was 235 °C; that for `C[C@H](O)CC[C@H](C)O` was 53 °C.
As for `O=S(=O)(Cl)c1ccc(S(=O)(=O)c2ccccc2)s1`, the melting point was 104 °C.
The value for `CC(C(=O)O)c1ccc(Cl)cc1` (centres undefined) was 57 °C; that for `C/C(=N\Nc1ccccc1)c1nc2c(ccc3ccccc32)nc1C` was 209 °C; that for `NC(=O)C1CC1(Cl)Cl` (centres undefined) was 148 to 149 °C.
As for `CC(=O)CCc1ccc2c(c1)NC(C)CC2` (centres undefined), the figure is 54 °C; as for `Nc1c(Br)cc(Br)cc1Cc1ccccc1`, 195 °C; as for `O=C(Nc1cc(Cl)cc(Cl)c1O)c1c(O)c(Cl)cc(Cl)c1Cl`, 210 °C.
For the compound `O=C(O)COc1ccc(OC(F)(F)F)cc1`, the melting point fell in the range of 84 to 86 °C.
As for `COC1=C(OC)/C(=C/C=O)OC1=O`, the figure is 60 to 62 °C; as for `OC(c1ccc(Br)cc1)C1CC1` (centres undefined), 57 to 57.5 °C.
`N#CC(N)C(N)=O` (centres undefined) registered a melting point of 120 to 124 °C.
The value for `Cc1nn(C)c(C)c1Br` was 35 °C; that for `CC(=O)Nc1ccc(F)cc1F` was 122 °C.
Turning to `O=C(c1ccccc1)C(Br)C(Br)c1ccccc1` (centres undefined), the melting point turned out to be 156 °C.
The value for `COc1cc(/C=C/[N+](=O)[O-])c([N+](=O)[O-])cc1OC` was 168 to 169 °C; that for `O=C1CCC(=O)N1Br` was 177 °C; that for `CCCCCCCOC(=O)CCC` was -57.5 °C.
The value for `Cc1onc(-c2ccccc2)c1CN` was 66 to 68 °C; that for `O=Cc1coc2ccccc2c1=O` was 151 to 155 °C.
The value for `COc1ccc(Nc2nc(N)nnc2-c2ccccc2)cc1` was 293 °C; that for `CCOC(=O)C1=C(C)NC(=S)NC1c1ccco1` (centres undefined) was 174 to 175 °C.
With `CC(C)(C)c1cc([N+](=O)[O-])c2cc(C(C)(C)C)cc([N+](=O)[O-])c2c1`, the melting point lay within 198 to 200 °C.
As for `Brc1ccc(Oc2ccccc2Br)cc1Br`, the figure is less than 20 °C.
On to `Cc1cc(C)c(Cc2c(C)cc(C)cc2C)c(C)c1`, for which the melting point is 130 °C.
The value for `NCc1ccccc1` was 10 °C; that for `O=C1OC(c2ccccc2)=NC1=Cc1cccs1` was 167 °C.
As for `CC(=O)Nc1cc([N+](=O)[O-])c(F)cc1F`, the figure is 146 to 148 °C.
As for `OCCN1CCN(Cc2ccc(F)cc2)CC1`, the figure is 55 to 56 °C; as for `CC(=O)c1cc(Cl)cc(Cl)c1O`, 97 °C.
Regarding `CC(CCC(N)=O)n1nc2ccccc2n1` (centres undefined), the melting point came out at 102 °C.
As for `Cc1ccc(Oc2cccc(F)c2C#N)cc1`, the figure is 93 to 95 °C; as for `CC1OC(n2cc(F)c(=O)[nH]c2=O)C(O)C1O` (centres undefined), 190 °C.
As for `c1ccc(-c2nnc(NC3=NCCN3)s2)cc1`, the figure is 192 to 194 °C; as for `O=C1CCC(=O)N1I`, 204 °C; as for `CC1CCC(C(C)C)C(OC(=O)C(C=Cc2ccccc2)C(=O)c2ccccc2)C1` (centres undefined), 104 °C.
As for `Cc1ccc(-c2ccccc2)cc1C`, the figure is 29.5 °C.
With `CN1CCOCC1`, the melting point was -65 °C.
The value for `CCP(=O)(CC)CC` was 52 to 53 °C; that for `CCC(C(=O)O)c1ccc(N2Cc3ccccc3C2=O)cc1` (centres undefined) was 183 °C; that for `O=Cc1c(Cl)ccc([N+](=O)[O-])c1Cl` was 165 to 167 °C.
Turning to `Cc1ccc(/C=C(\C#N)c2nc(-c3ccccc3)cs2)cc1`, the melting point is 78 to 80 °C.
As for `CC(=O)Oc1cccc(N=[N+]([O-])c2cccc(OC(C)=O)c2)c1`, the figure is 102 °C; as for `Nc1c(F)c(F)c(Br)c(F)c1F`, 59 to 61 °C.
`Nc1c(Br)cc(C2CCCCC2)cc1Br`: the melting point lay in the range of 37 to 38 °C.
As for `CN1CCc2cc3c(cc2C(=O)Cc2ccc4c(c2C1)OCO4)OCO3`, the figure is 208 °C; as for `CC#CC(C)C`, -110 °C; as for `CCC(C)NC(=O)C(C(F)(F)F)C(F)(F)F` (centres undefined), 110 to 113 °C.
As for `CC=CC=CCCCCCCCO`, the figure is 32 °C; as for `Clc1nc(Cl)nc(Oc2cc(Oc3nc(Cl)nc(Cl)n3)cc(Oc3nc(Cl)nc(Cl)n3)c2)n1`, 240 °C; as for `CSc1sc(C(=O)O)c(-c2cccc(Cl)c2)c1C#N`, 209 to 211 °C.
As for `Cc1ccc(C(=O)C2=NOC3C(=O)N(c4ccc(F)cc4)C(=O)C23)cc1` (centres undefined), the figure is 173 °C.
Compound `O=[N+]([O-])c1ccc2c(c1)=NC(c1cccc(C3N=c4cc([N+](=O)[O-])ccc4=C3O)c1)C=2O` (centres undefined) returned a melting point of 266 °C.
As for `CCOC(=O)CCC(C)C1CCC2C3C(=O)CC4CC(O)CCC4(C)C3CC(O)C12C` (centres undefined), the figure is 161 °C; as for `N#CC(C#N)=NNc1cc(Cl)cc(Cl)c1`, 192 to 194 °C.
As for `CCN(CC)C(=O)c1[nH]c(C)c(C)c1C`, the figure is 113 to 115 °C.
Regarding `CCCCCC(O)CCCCC`, the melting point was 25 °C.
As for `C[Si](C)(C)C1=CC2CCCCC2C1=O` (centres undefined), the figure is 59 °C; as for `Cc1nc([N+](=O)[O-])cn1CCC#N`, 115 °C; as for `CN(C)CCc1c[nH]c2ccc(O)cc12`, 146 °C.
The value for `Cc1nc(-c2ccccc2)ncc1C=O` was 101 to 103 °C; that for `CCCCCCCCCCCCCCCCCCCCCC(=O)OCC` was 50 °C; that for `Nc1cnc(N)c(Br)c1` was 117 to 122 °C.
In turn, `Brc1ccc2c(c1)OCCOCCOCCOCCOCCO2` yielded a melting point of 79 to 83 °C.
As for `Nc1c(F)cc(F)cc1F`, the figure is 35 °C.
As for `O=S(=O)(Cl)c1cc(S(=O)(=O)c2ccccc2)cs1`, the figure is 102 °C.
On to `CCOCN(C(=O)CCl)c1c(C)cccc1CC`, for which the melting point came out at 10.6 °C.
As for `O=C(O)C(=O)c1cccs1`, the figure is 89 to 95 °C.
As for `CC(=O)NC1CC=CCC(NC(C)=O)CC=CC1` (centres undefined), the melting point fell in the range of 267 to 277 °C.
The value for `FC1(F)C(Cl)=C(Cl)C(F)(F)C(F)(F)C1(F)F` was -70 °C.
With `COc1cc(OC)c(C(C)=O)c(OC)c1`, the melting point is 103 °C.
For `CC(=O)OC1CCC2C3CCC4CC(C(C)=O)CCC4(C)C3CCC12C` (centres undefined), the melting point was 140 °C.
`O=C(CBr)c1ccc(F)c(F)c1`: the melting point was in the range of 28 to 30 °C.
The value for `c1ccc(-c2csc3nc4ccccc4n23)cc1` was 140 to 142 °C.
As for `Cc1n[nH]c(C)c1Br`, the figure is 121 °C; as for `O=C1NC(=S)NC(=O)C1=NNc1cccc([N+](=O)[O-])c1`, 330 °C.
As for `CCc1nnc(/N=N/c2c(-c3ccccc3)n(C)c3ccccc23)s1`, the figure is 221 °C.
Consider `c1ccc(C2CCCNC2)cc1` (centres undefined), for which the melting point was determined as 14.5 °C.
As for `c1ccc(-c2nc(-c3ccccc3)nc(-c3ccccc3)n2)cc1`, the figure is 235 °C; as for `Cc1cc(Cn2nc(C)cc2C)c(O)c(Cn2nc(C)cc2C)c1`, 125 °C.
The value for `CN(C)C(=O)OC1N=C(c2ccccc2)c2cc(Cl)ccc2N(C)C1=O` (centres undefined) was 174 °C.
The value for `Nc1ccc(C(=O)O)cc1N` was 215 °C; that for `N#C/C(=C\c1c(Cl)cccc1Cl)c1nc(-c2ccccc2)cs1` was 96 °C; that for `CS(=O)(=O)CCO` was 31 to 33 °C.
Consider `O=Cc1ccc(Cn2cccn2)cc1`, for which the melting point fell in the range of 57 to 59 °C.
As for `FC(F)(F)c1ccc2c(c1)Nc1ccccc1S2`, the figure is 189 °C; as for `CC(=O)OCC(=O)C1(O)C(C)CC2C3CCC4=CC(=O)C=CC4(C)C3(F)C(O)CC21C` (centres undefined), 263 °C.
The value for `COP(=S)(OC)Oc1cc(Cl)c(Br)cc1Cl` was 53.5 °C; that for `O=Cc1cc(-c2cccs2)on1` was 66 °C.
